# Assay results: US20240309014A1, “MACROCYCLIC COMPOUNDS AND USES THEREOF” (President and Fellows of Harvard College, priority 2017, published 2024)
# Tested on: α-SMA expression in BJ normal human fibroblasts
# Experiment: α-SMA expression in BJ fibroblasts co-cultivated with FaDu cells
# Type: cell-based
# Conditions: BJ cells co-cultured with FaDu for three days
# Protocol: FIG. 19A. BJ cells (normal human […] fibroblasts) were co-cultured with FaDu cells for three days in the absence (vehicle) or presence of A83-01, a potent selective TGF-β-R inhibitor, and the expression of α-SMA was analysed by immunofluorescence staining (red color). Samples were also stained with anti-pan-human cytokeratin (green color) for cancer cell staining and DAPI (blue color) for nuclear staining. FIGS. 19B-19E BJ cells were treated with Compound (1) (0.15 nmol/L in immunofluorescence staining data and indicated concentrations in western blot analysis data) and TGF-β for 2 days. FIGS. 19B-19E. Samples were stained with the indicated antibody (red color) and DAPI (blue color) for nuclear staining. FIG. 19E Western blot images and quantification of the images. […] FIGS. 19G and 19E BJ cells were pretreated with defactinib (1 μmol/L) and TGF-β for 2 days. The lens magnification used was x4 (FIGS. 19A, 19B, 19C, 19G, and 19H) or x40 (FIGS. 19D and 19E).
# The expression of α-SMA was induced in BJ normal human fibroblasts upon co-cultivation with FaDu cells, and the expression was attenuated by treatment with A83-01, a potent selective inhibitor of the TGF-β-receptor (FIG. 19A).
compound,measurement,value
Cc1cccc(-c2nn(C(=S)Nc3ccccc3)cc2-c2ccnc3ccccc23)n1 [Compound A83-01],expression of α-SMA induced upon co-cultivation with FaDu cells,attenuated
